The values that follow come from US5104852A, “Method for the inhibition of the proliferation of cancer cells in a tumor sensitive to treatment with a selenodithiol by the injection into the tumor of a selenodithiol such as selenodiglutathione” (The Ohio State University, priority 1991, dated 1992).

SMILES strings stand for the structures.

The subject of data set [1] is DMBA-induced mammary tumorigenesis. The following applies: cited from earlier work.
The subject of data set [2] is Human Breast Cancer Cells. The following applies: parenteral administration, mice; cited from earlier work.
In data set [3] the target is EF-2 (Rattus norvegicus, UniProt P05197). The following applies: in vitro amino acid incorporation; cited from earlier work.
For data set [4], the system named is DU-145 Human Prostate Carcinoma Cells. The following applies: in vitro; cited from earlier work.
Data set [5] concerns DMBA (7,12-dimethylbenz(a)anthracene) induced tumors. In words: DMBA-induced tumors in rats, injection of agents (Table 1, FIG. 3). In kind it is in vivo. An excerpt:
The Table contrasts the results obtained by the desired dosage with the results obtained from four other groups of ten rats; the rats in each group being inoculated with cancer immunotoxins in differing dosages of both GSSeSG, retinol (HPR) and mixtures of each, as well as a control sample of […] which were not administered with cancer treating agents. All one hundred rats were inoculated with DMBA (7,12-dimethylbenz(a)anthracene) so as to induce cancer cell formation, which was then allowed to form tumors over a period of two months prior to testing. […] Thus, Table 1 clearly illustrates both the effectiveness of GSSeSG when utilized in the desired range of proportions and also the fact that even relatively small variations in excess of the crisis zone in its administration will cause severe damage to the host subject, while the proper range of dosages is substantially non-toxic to the treated host.

Data set [6] has as its system Malignant Mouse Lymphoid Cells. The note with it: intraperitoneal injections, mice previously inoculated with tumor cells, versus untreated control; cited from earlier work.
Data set [7] concerns the target T1, elongation factor 2 (EF-2) (Rattus norvegicus, UniProt P05197).
T1 construct: in a cell-free system derived solely from rats
The following applies: cell-free system derived from rats; cited from earlier work.

In data set [8] the test system is rat mammary tumor. Description: Direct injection into rat mammary tumor (FIG. 12, FIG. 13). Type of data set: in vivo. As to the method:
The tumor was induced in each rat by the administration of 7,12-dimethylbenz(a)anthracene and allowed to proliferate to the predetermined sized range of 1.5 to 2.5 centimeters in diameter. The selenodiglutathione was injected at a level of 700 micrograms directly into the central region of the tumor mass fifteen times over the course of thirty days.
FIG. 13 illustrates a table comparing the volume changes of three rat mammary cancer tumors injected over time. The curve marked "C" represents the volume increase in a control tumor injected with eluate from the column but with no selenodithiol. Curves "L" and "H" represent cancer tumors injected according to different treatment schedules of selenodiglutathione. The "L" tumor received a dose of selenodiglutathione of 1.46cc of 7×10^-3 M every forty eight hours for twenty eight days while the "H" tumor received a dose of selenodiglutathione of 2.8cc of 7×10^-3 M every ninety six hours for twenty eight days. […] The control tumor, C, continued to increase in volume dramatically.

Data set [9] relates to secondary superficial tumors. In words: Injection at site distant from the tumor. Type of data set: in vivo, rats. The note with it: effective dosages injected at site distant from the tumor. How it is done: It has further been discovered that rats which are injected with effective dosages of GSSeSG at site distant from the tumor will still kill the cancer tumors.
Data set [10] has as its system peripheral blood lymphocytes. Description: Sister Chromatid Exchange (mutagenicity). In kind it is cell-based, human. The note with it: FIG. 2, compared with selenite and selenomethionine. The source says:
FIG. 2 describes the effect that GSSeSG has with respect to the mutagenicity of three selenium containing, cancer treating agents as a function of their respective concentrations. More particularly, the preferred selenodithiol, GSSeSG is contrasted with two other selenium containing compounds, selenite and selenomethionine in the treatment of peripheral blood lymphocytes, i.e., normal human cells taken from different sections of the body. […] As one in the art is aware, in the technique known as Sister Chromatid Exchange (SCE) the particular nucleotide components which comprise the DNA genetic code cross over to form cell mutations which lead to the birth and growth of rapidly dividing neoplastic cells.

Data set [11] deals with human tumor cell lines. Description: Cell culture assay (microculture tetrazolium/MTT assay). In kind it is cell-based. An excerpt: The purpose of the cell culture assay is a method for measuring at what concentration of the cancer treating agent will inhibit neoplastic cell division or protein synthesis, and thus cause the death of the neoplastic cells. The particular assay technique is a modification of that described by Mosmann, Jour. of Immunol. Meth., 65, 1983, pp. 55-63. The cell lines used for the in vitro assay are: […]
The plating density of each cell type used in the assay is set forth below: […]
The procedure followed involved adding for each cell type 200 microliters of the cell suspension at the concentration determined above, to each well of a 96-well plate. The plates were allowed to incubate for twenty four hours at 37° C. and humidified in the presence of a 5% CO2 atmosphere, whereupon 20 microliters of GSSeSG concentrations ranging from 10^-8 M to 10^-4 M were added to the wells located on the plate. A variety of concentrations of cycloheximide and adriamycin were utilized as a control. The resulting plates were incubated for six days at 37° C., humidified in a 5% CO2 atmosphere and on the final day of the assay, 20 μl were added to each well of [MTT 3-(4,5-dimethylthiazol-2-yl)-2,5-diphenyl tetrazolium bromide], obtained from Sigma Cat #M2128. The MTT is prepared by combining 5mg/ml of a phosphate buffered saline (PBS) solution. […] Upon completion, the optical density of each well was read on an elisa plate reader set at 570nm (test sample) and 630nm (for reference).
FIGS. 4 through 11 provide comparisons of the effects at increasing concentrations of adriamycin and GSSeSG as measured by variations in optical density of various cell solutions. […] Variations in optical density, measured by a spectrophotometer, are indicative of the level of cellular activity. […]

The mark [12] stands for this setting: retinol alone or GSSeSG mixed with retinol, groups of ten rats.
[13] abbreviates: 1 μg per gram of rat body weight.

Regarding `O=[Se](O)O` [sodium selenite], the “tumorigenesis, high fat fed animals” value in [1] (high fat fed rats) is listed as “did not respond as favorably”. Moreover, the “tumorigenesis, low fat diets” value in [1] (rats on low fat diets) is given as “decrease tumorigenesis”. Moreover, the “development of cancerous tumors” value in data set [2] is given as “completely inhibits”. Further, the “concentration that can inhibit EF-2” value in data set [3] was 11 µM. For the same molecule, the “growth of human prostate carcinoma cells” value in data set [4] is recorded as “inhibits the growth”.

Regarding `CC1=C(/C=C/C(C)=C/C=C/C(C)=C/CO)C(C)(C)CCC1` [retinol, reference compound], in data set [5] (setting [12]), the “damage to the rats (bodyweight column)” value is “severe damage to the rats” and the effect on cancer entry is “effective in arresting the cancer”.

Turning to `N[C@@H](CCC(=O)N[C@@H](CS[Se]SC[C@H](NC(=O)CC[C@H](N)C(=O)O)C(=O)NCC(=O)O)C(=O)NCC(=O)O)C(=O)O` [GSSeSG, selenodiglutathione], in [6], the “life span of the animals” value is recorded as “increased the life span” and the tumor growth entry is recorded as “inhibited the tumor growth”. Besides, the “effectiveness in inhibiting protein synthesis versus sodium selenite or oxidized glutathione” value in data set [7] is “substantially more effective”. Moreover, in data set [5] (setting [13]), the “effect on cancer cells” value was “substantial elimination of the cancer cells” and the “harm to the rats as indicated by bodyweight” value is recorded as “substantially no harm to the rats”. Besides, the mortality of rats result in data set [5] (2 μg of GSSeSG per gram of bodyweight, ten rats, seventy nine days) is on record as “all but one of these specimens are dead”. Further, in [8] (1.46cc of 7×10^-3 M every forty eight hours for twenty eight days, FIG. 13), the “tumor volume change, "L" tumor” value was “stopped growing”. Also, the “tumor volume change, "H" tumor” value in data set [8] (2.8cc of 7×10^-3 M every ninety six hours for twenty eight days, FIG. 13) is on record as “decreased in volume to a level significantly below the initial volume”. In addition, in [8] (700 micrograms into central region of tumor, fifteen times over thirty days), the “detrimental effect to the animal” value is listed as “without any detrimental effect”. In data set [8] (700 micrograms into central region of tumor, fifteen times over thirty days, FIG. 12), the tumor size result is “decreased dramatically”. The “effect on tumors distant from the point of injection” value in [9] is listed as “disappearance of secondary superficial tumors”. In addition, the “number of Sister Chromatid Exchanges (inducible mutation)” value in [10] is “low number”. Moreover, the “concentration up to which neoplastic cell division increases” value in data set [11] (FIG. 1) is on record as “up to 10^-6 M”. Also, in data set [11] (MTT, six days incubation), the “concentration at which neoplastic cells survive (purple solution obtained)” value is “less than 10^-6 M” and the “concentration inhibiting neoplastic cell division or protein synthesis (purple solution not obtained)” value is on record as “at least 10^-5 M”.
